According to the NIST ThermoML archive (doi:10.1016/j.jct.2015.08.013):
Numbers after ± are expanded uncertainties.

Assay: xn = mol fraction of the nth substance listed
Settings: 100 kPa, Liquid; for mass density: Vibrating tube method; for viscosity: Capillary tube (Ostwald / Ubbelohde) method

CC1COC(=O)O1 (centres undefined) [4-methyl-1,3-dioxolan-2-one] + CN1CCCC1=O
Settings | mass density [kg/m3] | viscosity [mPa·s]
293.15 K, x2 = 0 | 1204.81 ± 1.6 | –
293.15 K, x2 = 0.0523 | 1194.07 ± 1.7 | –
293.15 K, x2 = 0.1021 | 1184.1 ± 1.7 | –
293.15 K, x2 = 0.1995 | 1165.18 ± 1.6 | –
293.15 K, x2 = 0.2987 | 1146.67 ± 1.6 | –
293.15 K, x2 = 0.4003 | 1128.44 ± 1.6 | –
293.15 K, x2 = 0.5164 | 1108.38 ± 1.6 | –
293.15 K, x2 = 0.6011 | 1094.3 ± 1.6 | –
293.15 K, x2 = 0.6989 | 1078.57 ± 1.6 | –
293.15 K, x2 = 0.7989 | 1062.97 ± 1.6 | –
293.15 K, x2 = 0.9003 | 1047.58 ± 1.6 | –
293.15 K, x2 = 0.9506 | 1040.04 ± 1.6 | –
298.15 K, x2 = 0 | 1199.02 ± 1.6 | 2.52 ± 0.052
298.15 K, x2 = 0.0523 | 1188.38 ± 1.7 | –
298.15 K, x2 = 0.1021 | 1178.51 ± 1.6 | –
298.15 K, x2 = 0.114 | – | 2.391 ± 0.05
298.15 K, x2 = 0.1995 | 1159.73 ± 1.6 | –
298.15 K, x2 = 0.2013 | – | 2.294 ± 0.048
298.15 K, x2 = 0.2987 | 1141.4 ± 1.6 | –
298.15 K, x2 = 0.3347 | – | 2.158 ± 0.045
298.15 K, x2 = 0.389 | – | 2.103 ± 0.044
298.15 K, x2 = 0.4003 | 1123.3 ± 1.6 | –
298.15 K, x2 = 0.5 | – | 2.003 ± 0.042
298.15 K, x2 = 0.5164 | 1103.36 ± 1.6 | –
298.15 K, x2 = 0.597 | – | 1.926 ± 0.041
298.15 K, x2 = 0.6011 | 1089.39 ± 1.6 | –
298.15 K, x2 = 0.6989 | 1073.78 ± 1.6 | –
298.15 K, x2 = 0.709 | – | 1.845 ± 0.039
298.15 K, x2 = 0.7891 | – | 1.796 ± 0.038
298.15 K, x2 = 0.7989 | 1058.3 ± 1.6 | –
298.15 K, x2 = 0.8985 | – | 1.732 ± 0.037
298.15 K, x2 = 0.9003 | 1043 ± 1.6 | –
298.15 K, x2 = 0.9506 | 1035.5 ± 1.6 | –
303.15 K, x2 = 0 | 1194 ± 1.6 | 2.27 ± 0.047
303.15 K, x2 = 0.0523 | 1183.42 ± 1.7 | –
303.15 K, x2 = 0.1021 | 1173.58 ± 1.6 | –
303.15 K, x2 = 0.114 | – | 2.157 ± 0.045
303.15 K, x2 = 0.1995 | 1154.87 ± 1.6 | –
303.15 K, x2 = 0.2013 | – | 2.076 ± 0.043
303.15 K, x2 = 0.2987 | 1136.58 ± 1.6 | –
303.15 K, x2 = 0.3347 | – | 1.957 ± 0.041
303.15 K, x2 = 0.389 | – | 1.908 ± 0.04
303.15 K, x2 = 0.4003 | 1118.52 ± 1.6 | –
303.15 K, x2 = 0.5 | – | 1.821 ± 0.038
303.15 K, x2 = 0.5164 | 1098.63 ± 1.6 | –
303.15 K, x2 = 0.597 | – | 1.754 ± 0.037
303.15 K, x2 = 0.6011 | 1084.68 ± 1.6 | –
303.15 K, x2 = 0.6989 | 1069.12 ± 1.6 | –
303.15 K, x2 = 0.709 | – | 1.685 ± 0.036
303.15 K, x2 = 0.7891 | – | 1.641 ± 0.035
303.15 K, x2 = 0.7989 | 1053.68 ± 1.6 | –
303.15 K, x2 = 0.8985 | – | 1.585 ± 0.034
303.15 K, x2 = 0.9003 | 1038.41 ± 1.6 | –
303.15 K, x2 = 0.9506 | 1030.92 ± 1.6 | –
308.15 K, x2 = 0 | 1188.57 ± 1.6 | 2.08 ± 0.043
308.15 K, x2 = 0.0523 | 1178.1 ± 1.6 | –
308.15 K, x2 = 0.1021 | 1168.35 ± 1.6 | –
308.15 K, x2 = 0.114 | – | 1.988 ± 0.042
308.15 K, x2 = 0.1995 | 1149.78 ± 1.6 | –
308.15 K, x2 = 0.2013 | – | 1.916 ± 0.04
308.15 K, x2 = 0.2987 | 1131.63 ± 1.6 | –
308.15 K, x2 = 0.3347 | – | 1.81 ± 0.038
308.15 K, x2 = 0.389 | – | 1.767 ± 0.037
308.15 K, x2 = 0.4003 | 1113.71 ± 1.6 | –
308.15 K, x2 = 0.5 | – | 1.688 ± 0.036
308.15 K, x2 = 0.5164 | 1093.99 ± 1.6 | –
308.15 K, x2 = 0.597 | – | 1.628 ± 0.034
308.15 K, x2 = 0.6011 | 1080.16 ± 1.6 | –
308.15 K, x2 = 0.6989 | 1064.71 ± 1.6 | –
308.15 K, x2 = 0.709 | – | 1.568 ± 0.033
308.15 K, x2 = 0.7891 | – | 1.527 ± 0.032
308.15 K, x2 = 0.7989 | 1049.38 ± 1.6 | –
308.15 K, x2 = 0.8985 | – | 1.475 ± 0.031
308.15 K, x2 = 0.9003 | 1034.2 ± 1.6 | –
308.15 K, x2 = 0.9506 | 1026.76 ± 1.6 | –
313.15 K, x2 = 0 | 1183.11 ± 1.6 | 1.91 ± 0.04
313.15 K, x2 = 0.0523 | 1172.69 ± 1.6 | –
313.15 K, x2 = 0.1021 | 1162.99 ± 1.6 | –
313.15 K, x2 = 0.114 | – | 1.828 ± 0.038
313.15 K, x2 = 0.1995 | 1144.5 ± 1.6 | –
313.15 K, x2 = 0.2013 | – | 1.765 ± 0.037
313.15 K, x2 = 0.2987 | 1126.42 ± 1.6 | –
313.15 K, x2 = 0.3347 | – | 1.673 ± 0.035
313.15 K, x2 = 0.389 | – | 1.636 ± 0.034
313.15 K, x2 = 0.4003 | 1108.58 ± 1.6 | –
313.15 K, x2 = 0.5 | – | 1.568 ± 0.033
313.15 K, x2 = 0.5164 | 1088.95 ± 1.6 | –
313.15 K, x2 = 0.597 | – | 1.516 ± 0.032
313.15 K, x2 = 0.6011 | 1075.18 ± 1.6 | –
313.15 K, x2 = 0.6989 | 1059.78 ± 1.6 | –
313.15 K, x2 = 0.709 | – | 1.461 ± 0.031
313.15 K, x2 = 0.7891 | – | 1.426 ± 0.03
313.15 K, x2 = 0.7989 | 1044.52 ± 1.6 | –
313.15 K, x2 = 0.8985 | – | 1.379 ± 0.029
313.15 K, x2 = 0.9003 | 1029.43 ± 1.6 | –
313.15 K, x2 = 0.9506 | 1022.03 ± 1.6 | –
318.15 K, x2 = 0 | 1177.55 ± 1.6 | 1.75 ± 0.036
318.15 K, x2 = 0.0523 | 1167.21 ± 1.6 | –
318.15 K, x2 = 0.1021 | 1157.58 ± 1.6 | –
318.15 K, x2 = 0.114 | – | 1.682 ± 0.035
318.15 K, x2 = 0.1995 | 1139.21 ± 1.6 | –
318.15 K, x2 = 0.2013 | – | 1.627 ± 0.034
318.15 K, x2 = 0.2987 | 1121.25 ± 1.6 | –
318.15 K, x2 = 0.3347 | – | 1.545 ± 0.032
318.15 K, x2 = 0.389 | – | 1.513 ± 0.032
318.15 K, x2 = 0.4003 | 1103.52 ± 1.6 | –
318.15 K, x2 = 0.5 | – | 1.453 ± 0.031
318.15 K, x2 = 0.5164 | 1084 ± 1.6 | –
318.15 K, x2 = 0.597 | – | 1.407 ± 0.03
318.15 K, x2 = 0.6011 | 1070.31 ± 1.6 | –
318.15 K, x2 = 0.6989 | 1054.99 ± 1.6 | –
318.15 K, x2 = 0.709 | – | 1.359 ± 0.029
318.15 K, x2 = 0.7891 | – | 1.328 ± 0.028
318.15 K, x2 = 0.7989 | 1039.81 ± 1.6 | –
318.15 K, x2 = 0.8985 | – | 1.286 ± 0.027
318.15 K, x2 = 0.9003 | 1024.81 ± 1.6 | –
318.15 K, x2 = 0.9506 | 1017.45 ± 1.6 | –
323.15 K, x2 = 0 | 1171.96 ± 1.6 | 1.62 ± 0.034
323.15 K, x2 = 0.0523 | 1161.72 ± 1.6 | –
323.15 K, x2 = 0.1021 | 1152.17 ± 1.6 | –
323.15 K, x2 = 0.114 | – | 1.56 ± 0.033
323.15 K, x2 = 0.1995 | 1133.96 ± 1.6 | –
323.15 K, x2 = 0.2013 | – | 1.513 ± 0.032
323.15 K, x2 = 0.2987 | 1116.14 ± 1.6 | –
323.15 K, x2 = 0.3347 | – | 1.443 ± 0.03
323.15 K, x2 = 0.389 | – | 1.414 ± 0.03
323.15 K, x2 = 0.4003 | 1098.55 ± 1.6 | –
323.15 K, x2 = 0.5 | – | 1.361 ± 0.029
323.15 K, x2 = 0.5164 | 1079.17 ± 1.6 | –
323.15 K, x2 = 0.597 | – | 1.32 ± 0.028
323.15 K, x2 = 0.6011 | 1065.56 ± 1.6 | –
323.15 K, x2 = 0.6989 | 1050.38 ± 1.6 | –
323.15 K, x2 = 0.709 | – | 1.278 ± 0.027
323.15 K, x2 = 0.7891 | – | 1.25 ± 0.027
323.15 K, x2 = 0.7989 | 1035.3 ± 1.6 | –
323.15 K, x2 = 0.8985 | – | 1.213 ± 0.026
323.15 K, x2 = 0.9003 | 1020.41 ± 1.6 | –
323.15 K, x2 = 0.9506 | 1013.09 ± 1.6 | –
